# Results from patent US4001272A, “Herbicidal 2-fluoro-4-halo-phenyl-4,5,6,7-tetrahydro-2H-isoindole-1,3-diones” (E. I. Du Pont de Nemours and Company, priority 1974, dated 1977).
# Experiments:
# Format in all cases: in vivo
# [1] = system: crabgrass (Digitaria sanquinalis); test: Test B: overall spray in carrot field after weed emergence, percent control of crabgrass; details: six weeks after treatment, 0.1% Tween 20
# Excerpt: (§1) Test B involved a field sown to carrots and in which the following weed species emerged naturally: crabgrass (Digitaria sanquinalis), foxtails (Setaria spp.), barnyardgrass (Echinochloa crusgalli), pigweed (Amaranthus spp.), ragweed (Ambrosia artemisiifolia), velvetleaf (Abutilon theophrasti), smartweed (Polygonum spp.) and lambsquarters (Chenopodium album). Sixteen days after sowing, when all species of weeds had emerged, the plants were sprayed overall with a 50% wettable powder formulation of 2-(4-chloro-2-fluorophenyl)4,5,6,7-tetrahydro-2H-isoindole-1,3dione (Treatment I) in the form of an aqueous suspension, at rates of 0.5, 1.0, 2.0 and 4.0 kg/ha, and with 2-(4-chlorophenyl)-4,5,6,7-tetrahydro-2H-isoindole-1,3-dione (Treatment II) in the same form and at the same rates. The spray volume was 425 l/ha. The surfactant Tween 20* was added to all treatments in a concentration of 0.1% by weight. Six weeks after treatment, visual observations were made of percent weed control obtained and, for carrots, crop response.
# (§2) *Tween 20 -- A trademark of ICI of America which is the reaction product of sorbitan monolaurate with an average of 20 moles of ethylene oxide.
# [2] = system: pigweed (Amaranthus spp.); test: Test B: overall spray in carrot field after weed emergence, percent control of pigweed; details: six weeks after treatment, 0.1% Tween 20
# Excerpt: as §1, §2
# carrots = test: Test B: overall spray in carrot field after weed emergence, crop response of carrots; details: six weeks after treatment, 0.1% Tween 20
# Excerpt: as §1, §2
# [3] = system: crabgrass (Digitaria sanquinalis); test: Test C: preemergence weed control in rice, crabgrass; details: 29 days after treatment
# Excerpt: (§3) In test A, soybeans, peanuts, lima beans, green beans and squash were planted in a field infested with the following weed seeds: crabgrass (Digitaria sanquinalis), foxtails (Setaria spp.), barnyardgrass (Echinochloa crusgalli), pigweed (Amaranthus spp.), ragweed (Ambrosia artemisiifolia), velvetleaf (Abutilon theophrasti), purslane (Portulaca oleracea) and flower-of-an-hour (Hibiscus trionum). A 50% wettable powder formulation of 2-(4-chloro-2-fluorophenyl)-4,5,6,7-tetrahydro-2H-isoindole-1,3-dione was applied in the form of an aqueous suspension at rates of 0.125, 0.25, 0.5 and 1.0 kg/ha, each treatment replicated twice. The plots were rated for percent weed control and crop response seven weeks after treatment. Crop response was expressed on a scale of 0 = no injury to 10 = complete kill.
# (§4) Test C concerned preemergence weed control in rice. The field selected contained seeds of the following weed species: crabgrass (Digitaria sanquinalis), foxtail (Setaria spp.), barnyardgrass (Echinochloa crusgalli), pigweed (Amaranthus spp.), ragweed (Ambrosia artemisiifolia), velvetleaf (Abutilon theophrasti), purslane (Portulaca oleracea) and flower-of-an-hour (Hibiscus trionum). Two varieties of rice, CSM-3 and Nato, were planted at depths of both 1 and 2 cm. In addition, rice seedlings of both varieties were transplanted into the field to be treated. Immediately thereafter, the plot was treated with an aqueous suspension of 2-(4-chloro-2-fluorophenyl)-4,5,6,7-tetrahydro-2H-isoindole-1,3-dione (Treatment I) at rates of 0.125 and 0.25 kg/ha, and an aqueous suspension of 2-(4-chlorophenyl)-4,5,6,7-tetrahydro-2H-isoindole-1,3dione (Treatment II) at rates of 0.25, 0.50, 1.00 and 2.00 kg/ha. The test chemicals had been formulated as 50% wettable powders. Overall spray volume was 540 l/ha. Ratings of percent weed control obtained and crop response were made 29 days after treatment, as described for test A. The ratings are summarized in the following Table III.
# [4] = system: pigweed (Amaranthus spp.); test: Test C: preemergence weed control in rice, pigweed; details: 29 days after treatment
# Excerpt: as §3, §4
# [5] = system: ragweed (Ambrosia artemisiifolia); test: Test C: preemergence weed control in rice, ragweed; details: 29 days after treatment
# Excerpt: as §3, §4
# rice, variety CSM-3 = test: Test C: crop response of rice CSM-3; details: 29 days, 0 = no injury to 10 = complete kill; for Crop Response, Rice CSM-3, 1 cm: planting depth 1 cm; for Crop Response, Rice CSM-3, 2 cm: planting depth 2 cm; for Crop Response, Rice CSM-3, T: transplanted
# Excerpt: as §3, with “A 50% wettable powder formulation of 2-(4-chloro-2-fluorophenyl)-4,5,6,7-tetrahydro-2H-isoindole-1,3-dione was applied in the form of an aqueous suspension at rates of 0.125, 0.25, 0.5 and 1.0 kg/ha, each treatment replicated twice.” left out
# Test C concerned preemergence weed control in rice. The field selected contained seeds of the following weed species: crabgrass (Digitaria sanquinalis), foxtail (Setaria spp.), barnyardgrass (Echinochloa crusgalli), pigweed (Amaranthus spp.), ragweed (Ambrosia artemisiifolia), velvetleaf (Abutilon theophrasti), purslane (Portulaca oleracea) and flower-of-an-hour (Hibiscus trionum). Two varieties of rice, CSM-3 and Nato, were planted at depths of both 1 and 2 cm. In addition, rice seedlings of both varieties were transplanted into the field to be treated. […] The test chemicals had been formulated as 50% wettable powders. Overall spray volume was 540 l/ha.
# foxtails (Setaria spp.) = test: Test A: field test, percent weed control of foxtails; details: seven weeks after treatment
# Excerpt: as §3
# [6] = system: pigweed (Amaranthus spp.); test: Test A: field test, percent weed control of pigweed; details: seven weeks after treatment
# Excerpt: as §3
# [7] = system: flower-of-an-hour (Hibiscus trionum); test: Test A: field test, percent weed control of flower-of-an-hour; details: seven weeks after treatment
# Excerpt: as §3
# green beans = test: Test A: field test, crop response of green beans; details: seven weeks, 0 = no injury to 10 = complete kill
# Excerpt: as §3
# peanuts = test: Test A: field test, crop response of peanuts; details: seven weeks, 0 = no injury to 10 = complete kill
# Excerpt: as §3
structure (smiles),measurement,setting,value
"O=C1C2=C(CCCC2)C(=O)N1c1ccc(Cl)cc1 [Treatment II, 2-(4-chlorophenyl)-4,5,6,7-tetrahydro-2H-isoindole-1,3-dione]","% Control, Crabgrass",[1]; 0.5 kg/ha,0%
same,"% Control, Crabgrass",[1]; 1.0 kg/ha,20%
same,"% Control, Crabgrass",[1]; 2.0 kg/ha,40%
same,"% Control, Crabgrass",[1]; 4.0 kg/ha,60%
same,"% Control, Pigweed",[2]; 0.5 kg/ha,50%
same,"% Control, Pigweed",[2]; 1.0 kg/ha,70%
same,"% Control, Pigweed",[2]; 2.0 kg/ha,90%
same,"% Control, Pigweed",[2]; 4.0 kg/ha,99%
same,"Crop Response, Carrots",carrots; 0.5 kg/ha,4
same,"Crop Response, Carrots",carrots; 1.0 kg/ha,4
same,"Crop Response, Carrots",carrots; 2.0 kg/ha,4
same,"Crop Response, Carrots",carrots; 4.0 kg/ha,4
same,"% Control, Crabgrass",[3]; 0.25 kg/ha,99%
same,"% Control, Crabgrass",[3]; 0.50 kg/ha,100%
same,"% Control, Crabgrass",[3]; 1.0 kg/ha,100%
same,"% Control, Crabgrass",[3]; 2.0 kg/ha,100%
same,"% Control, Pigweed",[4]; 0.25 kg/ha,100%
same,"% Control, Pigweed",[4]; 0.50 kg/ha,100%
same,"% Control, Pigweed",[4]; 1.0 kg/ha,100%
same,"% Control, Pigweed",[4]; 2.0 kg/ha,100%
same,"% Control, Ragweed",[5]; 0.25 kg/ha,100%
same,"% Control, Ragweed",[5]; 0.50 kg/ha,100%
same,"% Control, Ragweed",[5]; 1.0 kg/ha,100%
same,"% Control, Ragweed",[5]; 2.0 kg/ha,100%
same,"Crop Response, Rice CSM-3, 1 cm","rice, variety CSM-3; 0.25 kg/ha",4
same,"Crop Response, Rice CSM-3, 2 cm","rice, variety CSM-3; 0.25 kg/ha",1
same,"Crop Response, Rice CSM-3, T","rice, variety CSM-3; 0.25 kg/ha",0
same,"Crop Response, Rice CSM-3, 1 cm","rice, variety CSM-3; 0.50 kg/ha",5
same,"Crop Response, Rice CSM-3, 2 cm","rice, variety CSM-3; 0.50 kg/ha",2
same,"Crop Response, Rice CSM-3, T","rice, variety CSM-3; 0.50 kg/ha",0
same,"Crop Response, Rice CSM-3, 1 cm","rice, variety CSM-3; 1.0 kg/ha",7
same,"Crop Response, Rice CSM-3, 2 cm","rice, variety CSM-3; 1.0 kg/ha",4
same,"Crop Response, Rice CSM-3, T","rice, variety CSM-3; 1.0 kg/ha",0
same,"Crop Response, Rice CSM-3, 1 cm","rice, variety CSM-3; 2.0 kg/ha",10
same,"Crop Response, Rice CSM-3, 2 cm","rice, variety CSM-3; 2.0 kg/ha",7
same,"Crop Response, Rice CSM-3, T","rice, variety CSM-3; 2.0 kg/ha",1
"O=C1C2=C(CCCC2)C(=O)N1c1ccc(Cl)cc1F [Treatment I, 2-(4-chloro-2-fluorophenyl)-4,5,6,7-tetrahydro-2H-isoindole-1,3-dione]","% Control, Foxtail",foxtails (Setaria spp.); 0.125 kg/ha,40%
same,"% Control, Foxtail",foxtails (Setaria spp.); 0.25 kg/ha,82%
same,"% Control, Foxtail",foxtails (Setaria spp.); 0.50 kg/ha,95%
same,"% Control, Foxtail",foxtails (Setaria spp.); 1.00 kg/ha,99%
same,"% Control, Pigweed",[6]; 0.125 kg/ha,90%
same,"% Control, Pigweed",[6]; 0.25 kg/ha,98%
same,"% Control, Pigweed",[6]; 0.50 kg/ha,95%
same,"% Control, Pigweed",[6]; 1.00 kg/ha,100%
same,"% Control, Flower-of-an-Hour",[7]; 0.125 kg/ha,87%
same,"% Control, Flower-of-an-Hour",[7]; 0.25 kg/ha,99%
same,"% Control, Flower-of-an-Hour",[7]; 0.50 kg/ha,99%
same,"% Control, Flower-of-an-Hour",[7]; 1.00 kg/ha,100%
same,"Crop Response, Green beans",green beans; 0.125 kg/ha,2
same,"Crop Response, Green beans",green beans; 0.25 kg/ha,2.5
same,"Crop Response, Green beans",green beans; 0.50 kg/ha,8
same,"Crop Response, Green beans",green beans; 1.00 kg/ha,8.5
same,"Crop Response, Peanuts",peanuts; 0.125 kg/ha,0
same,"Crop Response, Peanuts",peanuts; 0.25 kg/ha,0
same,"Crop Response, Peanuts",peanuts; 0.50 kg/ha,2
same,"Crop Response, Peanuts",peanuts; 1.00 kg/ha,3.5
same,"% Control, Crabgrass",[1]; 0.5 kg/ha,60%
same,"% Control, Crabgrass",[1]; 1.0 kg/ha,85%
same,"% Control, Crabgrass",[1]; 2.0 kg/ha,90%
same,"% Control, Crabgrass",[1]; 4.0 kg/ha,100%
same,"% Control, Pigweed",[2]; 0.5 kg/ha,92%
same,"% Control, Pigweed",[2]; 1.0 kg/ha,99%
same,"% Control, Pigweed",[2]; 2.0 kg/ha,100%
same,"% Control, Pigweed",[2]; 4.0 kg/ha,100%
same,"% Control, Crabgrass",[3]; 0.125 kg/ha,96%
same,"% Control, Crabgrass",[3]; 0.25 kg/ha,100%
same,"% Control, Pigweed",[4]; 0.125 kg/ha,99%
same,"% Control, Pigweed",[4]; 0.25 kg/ha,100%
same,"% Control, Ragweed",[5]; 0.125 kg/ha,100%
same,"% Control, Ragweed",[5]; 0.25 kg/ha,100%
same,"Crop Response, Rice CSM-3, 1 cm","rice, variety CSM-3; 0.125 kg/ha",3
same,"Crop Response, Rice CSM-3, 2 cm","rice, variety CSM-3; 0.125 kg/ha",0
same,"Crop Response, Rice CSM-3, T","rice, variety CSM-3; 0.125 kg/ha",0
same,"Crop Response, Rice CSM-3, 1 cm","rice, variety CSM-3; 0.25 kg/ha",5
same,"Crop Response, Rice CSM-3, 2 cm","rice, variety CSM-3; 0.25 kg/ha",1
same,"Crop Response, Rice CSM-3, T","rice, variety CSM-3; 0.25 kg/ha",0
